# Measurements published in article PMC9750858, “Rapid biosensor development using plant hormone receptors as reprogrammable scaffolds” (Nature Biotechnology, 2022).
# Values joined by “and” are separate entries in the source; they are usually repeats but may differ in a detail not shown here. Identical values can stand only once. Like-named read-outs stand apart in the source and are kept apart here.
# B1: WT (636): 6×His–MBP–ΔN-HAB1 (C186S, C274S) (protein)
# chain: RSVYELDSIPLWGTVSIQGNRSEMEDAFAVSPHFLKLPIKMLMGDHEGMSPSLTHLTGHFFGVYDGHGGHKVADYCRDRLHFALAEEIERIKDELSKRNTGEGRQVQWDKVFTSCFLTVDGEIEGKIGRAVVGSSDKVLEAVASETVGSTAVVALVCSSHIVVSNCGDSRAVLFRGKEAMPLSVDHKPDREDEYARIENAGGKVIQWQGARVFGVLAMSRSIGDRYLKPYVIPEPEVTFMPRSREDECLILASDGLWDVMNNQEVCEIARRRILMWHKKNGAPPLAERGKGIDPACQAAADYLSMLALQKGSKDNISIIVIDLKAQRKFKTRT
# Tests used:
# [1] = target: T1, PYR1^WIN / ΔN-HAB1 (Arabidopsis thaliana, UniProt O49686, A160I/D26G/E4G/F159A/K59Q/Y23H); assay: Ligand/receptor-mediated PP2C (ΔN-HAB1 phosphatase) inhibition, fluorogenic substrate, PYR1^WIN; type: biochemical
# T1 construct: 6xHis (N); made in house; host or cells: E. coli BL21 (DE3) pLysS
# T1 sequence (O49686 with tags, fused parts or gaps E4G/Y23H/D26G/K59Q/F159A/A160I): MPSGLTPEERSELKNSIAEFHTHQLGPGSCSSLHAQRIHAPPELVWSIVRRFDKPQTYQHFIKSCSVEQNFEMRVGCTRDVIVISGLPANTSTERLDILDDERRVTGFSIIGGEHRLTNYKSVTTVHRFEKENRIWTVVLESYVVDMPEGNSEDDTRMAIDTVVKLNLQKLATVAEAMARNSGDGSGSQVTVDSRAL
# Method: Coding sequences of the cannabinoid sensors were cloned into the protein expression vector pET28a to encode 6×His-tag-receptor fusions. Constructs were sequenced and transformed into the BL21 (DE3) pLysS E. coli strain for heterologous expression with IPTG (1 mM), followed by purification, using affinity chromatography, as previously reported. In vitro validation of evolved sensors was performed by using recombinant sensors and ΔN-HAB1 (HAB1 Δ1–178, ref. [36]) proteins, as previously described. […] Cannabinoid concentration curves ranged from 4 to 10,000 nM, and median inhibitory concentrations for PP2C inhibition were obtained via fluorescent measurement in the presence of 1 mM 4-methylumbelliferyl phosphate.
# [2] = target: T2, PYR1^WIN (Arabidopsis thaliana, UniProt O49686, A160I/D26G/E4G/F159A/K59Q/Y23H); assay: Split NanoLuc luciferase complementation in yeast, NLuc^N-PYR1^WIN/NLuc^C-ΔN-HAB1; type: cell-based; set-up: >PYR1-WIN; expressed in transfected cells; host or cells: Saccharomyces cerevisiae; conditions: for LUM, split luciferase luminescence (Fig. 3c source data): replicates
# [3] = test system: PYR1-derived cannabinoid receptors (PYR1 mutants) binding HAB1
# [4] = target: T2, PYR1^WIN; assay: Yeast transcriptional activation circuit Z4-PYR1/VP64-ΔN-HAB1, GFP reporter, PYR1^WIN; conditions: for whole-cell GFP fluorescence (Fig. 3b source data): 12 h, replicates
# [5] = target: T3, PYR1^WIN-M (Arabidopsis thaliana, UniProt O49686, A160I/D26G/E4G/F159A/H60P/K59Q/N90S/Y23H); assay: ELISA-like plate assay, immobilized PYR1^WIN-M, biotinylated ΔN-HAB1^T+; type: binding; conditions: for ELISA signal generation, receptor cross-reactivity (source data): replicates, 212
# T3 construct: made in house
# T3 sequence (O49686 with tags, fused parts or gaps E4G/Y23H/D26G/K59Q/H60P/N90S/F159A/A160I): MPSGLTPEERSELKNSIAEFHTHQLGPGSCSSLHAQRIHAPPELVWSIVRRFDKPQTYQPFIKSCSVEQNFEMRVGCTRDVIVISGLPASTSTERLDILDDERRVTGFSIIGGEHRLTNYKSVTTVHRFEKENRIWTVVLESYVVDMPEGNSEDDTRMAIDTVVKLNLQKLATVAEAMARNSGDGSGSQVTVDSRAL
# [6] = target: T4, ABA-PYR1M complex (Arabidopsis thaliana, UniProt O49686, H60P/N90S); assay: Yeast surface display titration of HAB1 variants against PYR1^M in the presence of 500 nM ABA; type: binding; conditions: HAB1 variant for the ABA-PYR1M complex, 95% CI in brackets, read-out: KD2
# T4 construct: c-myc (display detection tag); expressed in transfected cells; host or cells: yeast (surface display of PYR1^M); the HAB1 variants were recombinant and purified
# T4 sequence (O49686 1-191 H60P/N90S): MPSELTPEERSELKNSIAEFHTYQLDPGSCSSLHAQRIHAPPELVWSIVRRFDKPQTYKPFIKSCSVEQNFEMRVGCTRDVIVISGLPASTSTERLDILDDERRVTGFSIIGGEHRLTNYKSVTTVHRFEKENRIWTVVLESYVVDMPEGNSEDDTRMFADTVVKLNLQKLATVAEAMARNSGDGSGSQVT
# Method: For crystallographic structures, PYL2 and ΔN-HAB1^T+ were expressed in E. coli and purified as described previously. Assays for phosphatase activity and apparent Tm, measured via thermal challenge using yeast surface display, were performed essentially as previously described.
# (a) Assessment of stabilized, inactivated 6xHis -MBP-ΔN -HAB1 variants. Experiments were repeated on two separat e days using independently generated batches of protein. Error bars indicate 1 SD of 3 measure ments . Sets of mutations f or each variant are noted in Supporting File 1.
# MBP-ΔN -HAB1 variants using p-NPP.
# HAB1 variants using YSD of PYR1M, in the presence of 500 nM ABA and 20 nM 6xHis -MBP-ΔN -HAB1 variant. The […]
# here ref ers to streptavidin -phycoerythrin.
# (b) Gating strategy for analysis of data shown in part (a). The f luorescence (a.u.) reported in part (a) is the gated ΔN - HAB 1T+ binding as measured by streptavidin -phycoeryt hrin (SAPE).
# T2 sequence (Q9CAJ0 179-511, one chain of several): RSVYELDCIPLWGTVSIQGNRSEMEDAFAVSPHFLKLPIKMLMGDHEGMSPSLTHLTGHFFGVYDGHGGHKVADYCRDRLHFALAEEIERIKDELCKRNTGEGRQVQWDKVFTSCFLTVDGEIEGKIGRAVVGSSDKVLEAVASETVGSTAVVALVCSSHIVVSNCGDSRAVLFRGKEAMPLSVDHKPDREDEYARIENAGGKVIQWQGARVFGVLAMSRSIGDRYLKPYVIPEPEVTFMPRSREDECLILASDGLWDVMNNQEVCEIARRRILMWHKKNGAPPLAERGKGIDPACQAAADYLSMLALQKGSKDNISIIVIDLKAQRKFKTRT
molecule,measurement,setting,value
"Cc1c(C(=O)c2cccc3ccccc23)c2cccc3c2n1C(CN1CCOCC1)CO3 (single isomer, unassigned; (+)) [WIN, (+)-WIN 55,212-2]",EC50,[1],72 nM
same,inhibition of ΔN-HAB1 phosphatase activity relative to mock (Fig. 3a source data),"[1]; [Ligand] 0.004115 uM, replicates, 0.004115 µM",-0.3447 and 3.327 and 8.558
same,inhibition of ΔN-HAB1 phosphatase activity relative to mock (Fig. 3a source data),"[1]; [Ligand] 0.012346 uM, replicates, 0.012346 µM",13.6846 and 17.5801
same,inhibition at 0.012346 µM,"[1]; [Ligand] 0.012346 uM, replicates, read-out: inhibition of ΔN-HAB1 phosphatase activity relative to mock (Fig. 3a source data)",13.7%
same,inhibition of ΔN-HAB1 phosphatase activity relative to mock (Fig. 3a source data),"[1]; [Ligand] 0.037037 uM, replicates, 0.037037 µM",27.3559 and 29.1117
same,inhibition at 0.037037 µM,"[1]; [Ligand] 0.037037 uM, replicates, read-out: inhibition of ΔN-HAB1 phosphatase activity relative to mock (Fig. 3a source data)",28.7%
same,inhibition of ΔN-HAB1 phosphatase activity relative to mock (Fig. 3a source data),"[1]; [Ligand] 0.111111 uM, replicates, 0.111111 µM",63.5233 and 58.9433
same,inhibition at 0.111111 µM,"[1]; [Ligand] 0.111111 uM, replicates, read-out: inhibition of ΔN-HAB1 phosphatase activity relative to mock (Fig. 3a source data)",61.1%
same,inhibition of ΔN-HAB1 phosphatase activity relative to mock (Fig. 3a source data),"[1]; [Ligand] 0.333333 uM, replicates, 0.333333 µM",83.1534 and 83.7629
same,inhibition at 0.333333 µM,"[1]; [Ligand] 0.333333 uM, replicates, read-out: inhibition of ΔN-HAB1 phosphatase activity relative to mock (Fig. 3a source data)",84.4%
same,inhibition of ΔN-HAB1 phosphatase activity relative to mock (Fig. 3a source data),"[1]; [Ligand] 1 uM, replicates, 1 µM",93.2666 and 92.7582
same,inhibition at 1 µM,"[1]; [Ligand] 1 uM, replicates, read-out: inhibition of ΔN-HAB1 phosphatase activity relative to mock (Fig. 3a source data)",93.4%
same,inhibition of ΔN-HAB1 phosphatase activity relative to mock (Fig. 3a source data),"[1]; [Ligand] 10 uM, replicates, 10 µM",93.1102 and 92.715
same,inhibition at 10 µM,"[1]; [Ligand] 10 uM, replicates, read-out: inhibition of ΔN-HAB1 phosphatase activity relative to mock (Fig. 3a source data)",97.6%
same,EC50,[2],56 nM
same,"LUM, split luciferase luminescence (Fig. 3c source data)",[2]; [Ligand] 0.0001 uM,4.094 and 3.848 and 3.642
same,"LUM, split luciferase luminescence (Fig. 3c source data)",[2]; [Ligand] 0.001 uM,4.593 and 4.28 and 4.174
same,"LUM, split luciferase luminescence (Fig. 3c source data)",[2]; [Ligand] 0.01 uM,5.448 and 5.829 and 5.793
same,"LUM, split luciferase luminescence (Fig. 3c source data)",[2]; [Ligand] 0.1 uM,9.293 and 8.992 and 7.439
same,"LUM, split luciferase luminescence (Fig. 3c source data)",[2]; [Ligand] 1 uM,12.392 and 10.463 and 10.193
same,"LUM, split luciferase luminescence (Fig. 3c source data)",[2]; [Ligand] 10 uM,13.953 and 10.293 (2×)
same,cannabinoid concentration to which CB-S1 library clones respond (as low as),[3]; clones from shuffled library CB-S1,50 nM
same,stereoisomer recognized by the evolved WIN receptor,[3]; selections conducted using a racemate,"recognizes the biologically active (+)-WIN 55,212-2 stereoisomer"
same,EC50,[4],28 nM
same,whole-cell GFP fluorescence (Fig. 3b source data),[4]; [Ligand] 0.0001 uM,1.509 and 1.618 and 1.562
same,whole-cell GFP fluorescence (Fig. 3b source data),[4]; [Ligand] 0.001 uM,1.581 and 1.833 and 1.779
same,whole-cell GFP fluorescence (Fig. 3b source data),[4]; [Ligand] 0.01 uM,2.798 and 2.733 and 2.756
same,whole-cell GFP fluorescence (Fig. 3b source data),[4]; [Ligand] 0.1 uM,4.085 and 3.967 and 4.046
same,whole-cell GFP fluorescence (Fig. 3b source data),[4]; [Ligand] 0.5 uM,4.169 and 4.494 and 4.506
same,whole-cell GFP fluorescence (Fig. 3b source data),[4]; [Ligand] 1 uM,4.972 and 4.595 and 4.6223
same,whole-cell GFP fluorescence (Fig. 3b source data),[4]; [Ligand] 5 uM,4.959 and 4.89 and 5.277
same,whole-cell GFP fluorescence (Fig. 3b source data),[4]; [Ligand] 10 uM,5.105 and 5.0049 and 4.874
same,whole-cell GFP fluorescence (Fig. 3b source data),[4]; [Ligand] 100 uM,4.986 and 5.066 and 4.884
same,"ELISA signal generation, receptor cross-reactivity (source data)",[5]; cannabinoid at 2 nM,1.487 and 1.277 and 1.151
same,"ELISA signal generation, receptor cross-reactivity (source data)",[5]; cannabinoid at 2 μM,3.378 and 3.384 and 3.484
same,ELISA absorbance signal (source data),"[5]; saline, ligand 1e-6 uM",0.133 and 0.126 and 0.127
same,ELISA absorbance signal (source data),"[5]; saline, ligand 1e-5 uM",0.152 and 0.136 and 0.148
same,ELISA absorbance signal (source data),"[5]; saline, ligand 0.0001 uM",0.162 and 0.157 and 0.179
same,ELISA absorbance signal (source data),"[5]; saline, ligand 0.001 uM",0.26 and 0.252 and 0.274
same,ELISA absorbance signal (source data),"[5]; saline, ligand 0.01 uM",0.302 and 0.321 and 0.336
same,ELISA absorbance signal (source data),"[5]; saline, ligand 0.1 uM",0.327 and 0.325
same,ELISA absorbance signal (source data),"[5]; saline, ligand 1 uM",0.315 and 0.35 and 0.349
same,ELISA absorbance signal (source data),"[5]; saline, ligand 10 uM",0.341 and 0.349 and 0.35
same,ELISA absorbance signal (source data),"[5]; saliva, ligand 1e-6 uM",0.097 and 0.09 and 0.095
same,ELISA absorbance signal (source data),"[5]; saliva, ligand 1e-5 uM",0.096 and 0.098
same,ELISA absorbance signal (source data),"[5]; saliva, ligand 0.0001 uM",0.124 and 0.126 and 0.123
same,ELISA absorbance signal (source data),"[5]; saliva, ligand 0.001 uM",0.239 and 0.257 and 0.242
same,ELISA absorbance signal (source data),"[5]; saliva, ligand 0.01 uM",0.374 and 0.38 and 0.358
same,ELISA absorbance signal (source data),"[5]; saliva, ligand 0.1 uM",0.397 and 0.408 and 0.382
same,ELISA absorbance signal (source data),"[5]; saliva, ligand 1 uM",0.436 and 0.42 and 0.431
same,ELISA absorbance signal (source data),"[5]; serum, ligand 1e-6 uM",0.103 and 0.1 and 0.092
same,ELISA absorbance signal (source data),"[5]; serum, ligand 1e-5 uM",0.098 and 0.102
same,ELISA absorbance signal (source data),"[5]; serum, ligand 0.0001 uM",0.108 and 0.106 and 0.1
same,ELISA absorbance signal (source data),"[5]; serum, ligand 0.001 uM",0.141 and 0.195 and 0.127
same,ELISA absorbance signal (source data),"[5]; serum, ligand 0.01 uM",0.239 and 0.24
same,ELISA absorbance signal (source data),"[5]; serum, ligand 0.1 uM",0.319 and 0.268 and 0.325
same,ELISA absorbance signal (source data),"[5]; serum, ligand 1 uM",0.312 and 0.316 and 0.329
same,ELISA absorbance signal (source data),"[5]; urine, ligand 1e-6 uM",0.141 and 0.142 and 0.134
same,ELISA absorbance signal (source data),"[5]; urine, ligand 1e-5 uM",0.148 and 0.138
same,ELISA absorbance signal (source data),"[5]; urine, ligand 0.0001 uM",0.162 and 0.161 and 0.149
same,ELISA absorbance signal (source data),"[5]; urine, ligand 0.001 uM",0.248 and 0.231 and 0.225
same,ELISA absorbance signal (source data),"[5]; urine, ligand 0.01 uM",0.338 and 0.33 and 0.313
same,ELISA absorbance signal (source data),"[5]; urine, ligand 0.1 uM",0.356 and 0.348 and 0.341
same,ELISA absorbance signal (source data),"[5]; urine, ligand 1 uM",0.387 and 0.372 and 0.376
B1,Kd,[6]; Biorep 1,2.53 nM
same,Kd,[6]; Biorep 2,5.01 nM
